What was measured:
[1] = system: vertebral deformity in osteoporotic post-menopausal women; conditions: after three years
Excerpt: (§1) Postmenopausal women having a “low” lumbar spinal bone mineral density, defined as either a bone mineral density (BMD) of less than or equal to 0.92 g/cm^2 (+ or −0.02 g/cm^2) as measured by Lunar DPX method, or less than or equal to 0.80 g/cm^2 (+ or −0.02 g/cm^2) as measured by the Hologic QDR method are considered to have osteoporosis. This definition corresponds to a BMD of approximately two and one-half standard deviations below the mean BMD of mature pre-menopausal Caucasian women in the United States. Patients are otherwise in good health based on medical history, a physical examination and a laboratory screening evaluation.
(§2) Data was collected on a total of 881 patients from two study groups (cohorts), following virtually identical protocol design and procedures, except that one study was conducted in the United States, and the other was conducted in Canada, Mexico, Europe, Israel, South America, Australia and New Zealand. Data from the two groups was then pooled. […] Additionally, all patients received dietary evaluation and instruction on calcium intake.
(§3) Assessment of vertebral fracture and vertebral deformity (SDI) was based on measurements from lateral spine x-rays, blinded to sequence. Lateral spine x-rays were taken at baseline, one, two and three years. The process of reading the x-rays involved a computerized entry of measurements taken at each of the vertebrae noted on the x-rays, a process known as digitization. […] A computer mouse with cross-hairs is used to enter the data as X,Y coordinates into a commercially available digitization board and computer software program, which computes the distance between landmarks (vertebral heights) in millimeters.

[2] = system: vertebral fractures in osteoporotic post-menopausal women
Protocol: VERTEBRAL FRACTURES—Calculations of prevalent and incident categorical vertebral fractures were performed by comparing each patient's baseline vertebral heights with a reference population (prevalent fracture) and with their follow-up heigiits (incident fractures). Only data from the true baselines were used to determine prevalent fractures. Any vertebral height ratio more than three standard deviations below its corresponding population reference value was defined as a prevalent vertebral fracture. An incident fracture was defined as greater than or equal to a 20% reduction from baseline vertebral height, with an absolute decrease of at least 4 mm in any vertebral height between baseline and follow-up.
as §1, §2, §3

[3] = system: decrease in stature in osteoporotic post-menopausal women; conditions: over three years
Excerpt: as §1, §2

Structure (SMILES): NCCCC(O)(P(=O)(O)O)P(=O)(O)O [alendronate, 4-amino-1-hydroxy-butylidene-1,1-bisphosphonate]
- SDI mean change from baseline, women with increased deformity [1]: 0.143
- SDI mean change from baseline, overall ([1]; all women): 0.041
- patients with progression (increase) in vertebral deformity by SDI ([1]; p=0.028 by Chi-square test): 33%
- number of vertebral fractures per 100 patients ([2]; three years): 4.2
- women with a new vertebral fracture ([2]; three years of study, 17 of 526 women, oral 5, 10 or 20/5 mg daily pooled, p=0.034 vs placebo): 3.23%
- proportion of patients experiencing two or more fractures among patients with at least one incident vertebral fracture ([2]; three years, 3/17): 18%
- mild fractures (end-plate deformity fractures) among women who sustained an incident fracture ([2]; three years, 6/17): 6/17 (35.3%)
- severe fractures (crush or wedge fractures) among women who sustained an incident fracture ([2]; three years, 11/17): 11/17 (64.7%)
- reduction in vertebral fracture rate per 100 patients compared to placebo ([2]; total number of vertebral fractures): at least 63%
- mean stature lost in patients who sustained at least one vertebral fracture [3]: 5.9 mm

Reference: patent publication US20010051616A1, “METHOD OF LESSENING THE RISK OF VERTEBRAL FRACTURES” (priority 1995, published 2001)
